In US20150269307A1, “TARGET INHIBITION MAP SYSTEM FOR COMBINATION THERAPY DESIGN AND METHODS OF USING SAME” (Texas Tech University System, priority 2014, published 2015):
Where two headings read alike, the source gives them in different places.

What was measured:
[1] = system: human patient-derived xenografts; experiment: Xenograft-derived chemical screen (Supplemental Table 3); assay type: cell-based; details: for IC50: read-out: IC50 Value
Protocol: Three chemical screens were applied to the U23674 primary tumor cell culture. […] The target inhibition profile is a quantified description of the inhibitory properties of the compound on the numerous protein targets preset on the PPTI screen.
To screen the chemical agents, cell cultures were plated in 384 well plates at a seeding density of 2000 cells per well over graded concentrations of the numerous compounds. The chemical concentrations were between 10 nM and […] depending on the activity range of the compounds. The cells were incubated in DMEM supplemented with 1% penicillin streptomycin, and 10% fetal bovine serum for 72 hours. Chemical sensitivity was determined by an MTS cell viability assay after the 72 hour incubation period. The sensitivity responses at the different concentrations were used to determine the chemical IC50 using a hill curve fitting algorithm with variable hill slope coefficients.

DIPG neurospheres [2] = experiment: cells; details: for viability at 10 µM: read-out: cell viability (cytocidal)
Protocol: Primary cultures of DIPG neurospheres were added to 384 well plates pre-plated with 60 known drugs in an increasing gradient of concentrations. […] To complete this drug screen, primary cultures of nestin […] 53 deficient DIPG neurospheres were added to plates with 60 known drug samples in an increasing gradient of concentrations.

DIPG neurospheres [3] = experiment: Cellular viability assay (CellTiter-Glo Luminescent Cell Viability Assay); assay type: cell-based, mouse; details: 48 hours
Protocol: A bromodeoxyuridine (BrdU) based cell proliferation ELISA assay kit (Roche) was used for proliferation and processed according to the manufacturer's protocol. […] Viability was measured with CellTiter-Glo Luminescent Cell Viability Assay (# G7572, Promega) per manufacturer's protocol, luminescence values were obtained using Turner Biosystems Modulus Microplate luminometer (model 9300-062). All values are given as mean+/−SD of at least 3 independent experiments.

DIPG-bearing mice = assay type: in vivo
Protocol: All experiments were performed under the Institutional Animal Care and Use Committee and Institutional Review Board of Duke University approved protocol (A239-10-9 and A214-13-8). Mice were maintained under barrier conditions. Nestin tv-a (Ntv-a) p53^fl/fl mice were injected with DF1 cells expressing RCAS-PDGF-B+RCAS-Cre as described above. Three weeks post injection; […]. Mice were treated with 25 mg/kg BID for 6 doses. Loss of 25% of body weight, lethargy, head tilt, or seizure development was used as euthanasia criteria during the treatment window. Four hours after completion of the 6th dose, treated animals were euthanized and tumor tissue was extracted as described above.
Tumor samples embedded in paraffin were then sectioned on a Leica RM2235 microtome at […] thickness. Immunohistochemistry was performed using Discovery XT (Ventana Medical Systems). Sections were immunostained for cleaved caspase 3 (Asp175) (Cell Signaling #9661) and anti-phospho-histone H3 (Ser10) (Millipore 06-570) to allow for evaluation of apoptosis and proliferation, respectively.
Image analysis was completed using MetaMorph 6.1 software (Universal Imaging Corp.; Downingtown, Pa.) to quantify immunostaining on previously imaged sections for each injected animal. These images were thresholded using the HSI color representation method in the Set Color Threshold window. This method has previously been validated by Maximova et. al.. This is a multidimensional evaluation of the hue, saturation, and intensity of each individual pixel making up an image with a range from 0-255. Once color thresholds had been established that were able to define all nucleated cells and only positively labeled cells, each of the ten images per injected animal were quantified for (per 40× high powered field): total nucleated cell area, total nucleated cell count, total positive cell area, total positive cell count. […] The averages for each animal of each of these parameters were then transferred to GraphPad Prism 5 software (GraphPad Software, San Diego, Calif.) where a Mann-Whitney-U t-test was performed on each analyzed parameter to determine statistical significance.

U23674 cells = experiment: Four-arm orthotropic allograft study, survival; assay type: in vivo, mouse; details: 50 mg/kg OSI-906, 150 mg/kg GDC-0941, oral gavage; compared to vehicle and other arms
Protocol: This engraftment was performed after damaging the right leg via cardiotoxin as previously described. Treatment commenced two days after engraftment. Dosing schedule was once daily by oral gavage up to day 5, at which time dosing was performed every other day. The endpoint for the study and survival analysis was tumor volume=1.4 cc.

[4] = Homo sapiens, 60 agent PPTI screen
[5] = 48 h, read-out: In Vitro Absolute IC50

## CN(C)CC[C@H](CSc1ccccc1)Nc1ccc(S(=O)(=O)NC(=O)c2ccc(N3CCN(Cc4ccccc4-c4ccc(Cl)cc4)CC3)cc2)cc1[N+](=O)[O-] [ABT-737]
[1]; [4]
  IC50: 2.66 µM

## CCNC(=O)c1noc(-c2cc(C(C)C)c(O)cc2O)c1-c1ccc(CN2CCOCC2)cc1 [AUY922]
[1]; [4]
  IC50: 1.03 µM

## CNC(=O)CN1CCC(Oc2cc3c(Nc4cccc(Cl)c4F)ncnc3cc2OC)CC1 [AZD-8931]
[1]; 60 agent PPTI screen
  IC50 Value: >conc tested

## Cn1c(=O)n(-c2ccc(C(C)(C)C#N)cc2)c2c3cc(-c4cnc5ccccc5c4)ccc3ncc21 [BEZ235]
[1]; 60 agent PPTI screen
  IC50 Value: >conc tested

## COc1cc2nc(N3CCCN(C)CC3)nc(NC3CCN(Cc4ccccc4)CC3)c2cc1OC [BIX-01294]
DIPG neurospheres [2]; [5]
  IC50: 3.95 µM
DIPG neurospheres [2]
  viability at 10 µM: < 15%
[1]; [4]
  IC50: 6.81 µM

## C[C@@]1(C(=O)Nc2ccc(F)nc2)CCCN1c1nc(Nc2cc(C3CC3)n[nH]2)c2cccn2n1 [BMS-754807]
DIPG neurospheres [3]
  concentration giving significant reduction of viability: ≥ 0.1 µM
DIPG-bearing mice; 25 mg/kg BID for 6 doses, intraperitoneal, mean, p=0.0435 vs vehicle
  apoptosis, cleaved caspase 3 positive cells: 1.063+/−0.1925 percentage of cell per high powered filed
DIPG-bearing mice; 25 mg/kg BID for 6 doses, intraperitoneal, mean, p=0.8421 vs vehicle
  DIPG proliferation, phosphorylated histone-3 (serine 10) positive cells: 9.632+/−2.827 percentage of cell per high powered filed
DIPG-bearing mice; mouse, in vivo
  blood brain barrier crossing: able to cross the blood brain barrier
  tolerability in mice undergoing treatment: well tolerated
DIPG neurospheres [2]; [5]
  IC50: 0.0974 µM
DIPG neurospheres [2]; Mus musculus, read-out: in vitro IC50 in the high throughput drug screen
  IC50: 0.09 µM
DIPG neurospheres [2]
  viability at 10 µM: < 15%
[1]; Homo sapiens
  IC50: 1.73 µM

## CC(C)C[C@H](NC(=O)[C@H](CCc1ccccc1)NC(=O)CN1CCOCC1)C(=O)N[C@@H](Cc1ccccc1)C(=O)N[C@@H](CC(C)C)C(=O)[C@@]1(C)CO1 [Carfilzomib]
DIPG neurospheres [2]; [5]
  IC50: 0.834 µM
DIPG neurospheres [2]
  viability at 10 µM: < 15%
[1]; [4]
  IC50: 0.86 µM

## C[C@@H](Oc1cc(-c2cnn(C3CCNCC3)c2)cnc1N)c1c(Cl)ccc(F)c1Cl [Crizontinib, crizotinib]
DIPG neurospheres [2]; [5]
  IC50: 6.23 µM
DIPG neurospheres [2]
  viability at 10 µM: < 15%
[1]; [4]
  IC50: 5.14 µM

## CN(C)c1ccccc1CN1CCCN(Cc2ccccc2N(C)C)C1c1ccncc1 [GANT61]
[1]; 60 agent PPTI screen
  IC50: 7.38 µM

## CS(=O)(=O)N1CCN(Cc2cc3nc(-c4cccc5[nH]ncc45)nc(N4CCOCC4)c3s2)CC1 [GDC-0941]
U23674 cells
  survival of mice (endpoint tumor volume 1.4 cc): no better than survival of mice only treated with vehicle

## NC1(c2ccc(-c3nc4ccn5c(=O)[nH]nc5c4cc3-c3ccccc3)cc2)CCC1 [MK-2206]
[1]; [4]
  IC50: 5.49 µM

## CC(=O)N[C@@H](CS)C(=O)O [NAC, N-acetyl cysteine]
[1]; 60 agent PPTI screen
  IC50 Value: >conc tested

## COC1=CC(c2cc3ccccc3[nH]2)=N/C1=C\c1[nH]c(C)cc1C [Obatoclax]
DIPG neurospheres [2]; [5]
  IC50: 0.159 µM
DIPG neurospheres [2]
  viability at 10 µM: < 15%

## CN(c1ncccc1CNc1nc(Nc2ccc3c(c2)CC(=O)N3)ncc1C(F)(F)F)S(C)(=O)=O [PF-562271]
[1]; 60 agent PPTI screen
  IC50 Value: >conc tested

## CC(C)(C(=O)NCC(F)(F)C(F)(F)F)C(=O)N[C@@H]1C(=O)Nc2ccccc2-c2ccccc21 [RO4929097]
[1]; 60 agent PPTI screen
  IC50 Value: >conc tested

## NC(=O)c1ccc(-c2nc(-c3ccc4c(c3)OCO4)c(-c3ccccn3)[nH]2)cc1 [SB-431542]
[1]; 60 agent PPTI screen
  IC50 Value: >conc tested

## CCOc1cc(/C=C2/C(=O)N(c3ccccc3)N=C2C)cc(Cl)c1OCC(=O)OC [SJ-172550]
[1]; 60 agent PPTI screen
  IC50 Value: >conc tested

## CC(C)(C)c1cnc(CSc2cnc(NC(=O)C3CCNCC3)s2)o1 [SNS-032]
DIPG neurospheres [2]; [5]
  IC50: 0.505 µM
DIPG neurospheres [2]
  viability at 10 µM: < 15%
[1]; 60 agent PPTI screen
  IC50 Value: >conc tested

## CCN(CC)CCNC(=O)c1c(C)[nH]c(/C=C2\C(=O)Nc3ccc(F)cc32)c1C [Sunitinib]
DIPG neurospheres [2]; [5]
  IC50: 6.92 µM
DIPG neurospheres [2]
  viability at 10 µM: < 15%

## N#Cc1ccc(COC[C@H]2O[C@@H](n3c(NCc4ccc(Cl)c(Cl)c4)nc4c(N)ncnc43)[C@H](O)[C@@H]2O)cc1 [VER-155008]
[1]; 60 agent PPTI screen
  IC50 Value: >conc tested

## COc1cc(Nc2ncc3c(n2)-c2ccc(Cl)cc2C(c2c(F)cccc2OC)=NC3)ccc1C(=O)O [alisertib]
[1]; 60 agent PPTI screen
  IC50 Value: >conc tested

## CN1CC[C@H](c2c(O)cc(O)c3c(=O)cc(-c4ccccc4Cl)oc23)[C@H](O)C1 [alvocidib]
[1]; 60 agent PPTI screen
  IC50 Value: >conc tested

## CC(C)C[C@H](NC(=O)[C@H](Cc1ccccc1)NC(=O)c1cnccn1)B(O)O [bortezomib]
[1]; [4]
  IC50: 0.821 µM

## COc1cc2c(Oc3ccc4[nH]c(C)cc4c3F)ncnc2cc1OCCCN1CCCC1 [cediranib]
[1]; 60 agent PPTI screen
  IC50 Value: >conc tested

## CC(C)[C@H]1C(=O)N[C@@H](CCCN=C(N)N)C(=O)NCC(=O)N[C@@H](CC(=O)O)C(=O)N[C@H](Cc2ccccc2)C(=O)N1C [cilengitide]
[1]; 60 agent PPTI screen
  IC50 Value: >conc tested

## Nc1ccccc1NC(=O)c1ccc(CNC(=O)OCc2cccnc2)cc1 [entinostat]
[1]; [4]
  IC50: 1.79 µM

## Cn1cc(C2=C(c3cn(C4CCN(Cc5ccccn5)CC4)c4ccccc34)C(=O)NC2=O)c2ccccc21 [enzastaurin]
[1]; 60 agent PPTI screen
  IC50 Value: >conc tested

## CC1=C(/C=C/C(C)=C/C=C/C(C)=C/C(=O)Nc2ccc(O)cc2)C(C)(C)CCC1 [fenretinide]
[1]; 60 agent PPTI screen
  IC50 Value: >conc tested

## COc1cc(Nc2ncc(F)c(Nc3ccc4c(n3)N(COP(=O)(O)O)C(=O)C(C)(C)O4)n2)cc(OC)c1OC [fostamatinib]
[1]; [4]
  IC50: 5.15 µM

## CS(=O)(=O)CCNCc1ccc(-c2ccc3ncnc(Nc4ccc(OCc5cccc(F)c5)c(Cl)c4)c3c2)o1 [lapatinib]
[1]; 60 agent PPTI screen
  IC50 Value: >conc tested

## Nc1cccc2c1CN(C1CCC(=O)NC1=O)C2=O (stereo not drawn) [lenalidomide]
[1]; 60 agent PPTI screen
  IC50 Value: >conc tested

## Cc1cn(-c2cc(NC(=O)c3ccc(C)c(Nc4nccc(-c5cccnc5)n4)c3)cc(C(F)(F)F)c2)cn1 [nilotinib]
[1]; 60 agent PPTI screen
  IC50 Value: >conc tested

## Cc1[nH]c2ccccc2c1CCNCc1ccc(/C=C/C(=O)NO)cc1 [panobinostat]
[1]; [4]
  IC50: 0.245 µM

## CCOc1cc2ncc(C#N)c(Nc3ccc(F)c(Cl)c3)c2cc1NC(=O)/C=C/CN(C)C [pelitinib]
[1]; 60 agent PPTI screen
  IC50 Value: >conc tested

## CCN(CC)CCCC(C)Nc1c2ccc(Cl)cc2nc2ccc(OC)cc12 (stereo not drawn) [quinacrine]
[1]; [4]
  IC50: 4.92 µM

## CCCC(=O)[O-].[Na+] [sodium butyrate]
[1]; 60 agent PPTI screen
  IC50 Value: >conc tested

## CNC(=O)c1cc(Oc2ccc(NC(=O)Nc3ccc(Cl)c(C(F)(F)F)c3)cc2)ccn1 [sorafenib]
[1]; [4]
  IC50: 6.13 µM

## CO[C@H]1C[C@@H]2CC[C@@H](C)[C@@](O)(O2)C(=O)C(=O)N2CCCC[C@H]2C(=O)O[C@H]([C@H](C)C[C@@H]2CC[C@@H](OC(=O)C(C)(CO)CO)[C@H](OC)C2)CC(=O)[C@H](C)/C=C(\C)[C@@H](O)[C@@H](OC)C(=O)[C@H](C)C[C@H](C)/C=C/C=C/C=C/1C [temsirolimus]
[1]; 60 agent PPTI screen
  IC50 Value: >conc tested

## Cc1cc(Nc2cc(N3CCN(C)CC3)nc(Sc3ccc(NC(=O)C4CC4)cc3)n2)[nH]n1 [tozasertib]
[1]; 60 agent PPTI screen
  IC50 Value: >conc tested

## CC1=C(/C=C/C(C)=C/C=C/C(C)=C/C(=O)O)C(C)(C)CCC1 [tretinoin]
[1]; 60 agent PPTI screen
  IC50 Value: >conc tested

## CC(/C=C/C(=O)NO)=C\[C@@H](C)C(=O)c1ccc(N(C)C)cc1 [trichostatin A]
[1]; 60 agent PPTI screen
  IC50: 5.52 µM

## COc1cc2c(Nc3ccc(Br)cc3F)ncnc2cc1OCC1CCN(C)CC1 [vandetanib]
[1]; [4]
  IC50: 3.04 µM

## C[C@]1(c2nc3c(C(N)=O)cccc3[nH]2)CCCN1 [veliparib]
[1]; 60 agent PPTI screen
  IC50 Value: >conc tested

## CS(=O)(=O)c1ccc(C(=O)Nc2ccc(Cl)c(-c3ccccn3)c2)c(Cl)c1 [vismodegib]
[1]; 60 agent PPTI screen
  IC50 Value: >conc tested

## COc1nc(C)cnc1NS(=O)(=O)c1cccnc1-c1ccc(-c2nnco2)cc1 [zibotentan]
[1]; 60 agent PPTI screen
  IC50 Value: >conc tested
